Patent US7335500B2, “Production of fucosylated carbohydrates by enzymatic fucosylation synthesis of sugar nucleotides; and in situ regeneration of GDP-fucose” (The Scripps Research Institute, priority 1991, dated 2008)

Columns and labels:
[1] = target: T1, human plasma type α1,3FucT (Homo sapiens, UniProt Q11128); assay: Substrate specificity and inhibition study of α1,3FucT (GDP-14C-Fuc transfer assay); type: biochemical; settings: 0.1 mM GDP-Fuc
T1 sequence (Q11128 1-374): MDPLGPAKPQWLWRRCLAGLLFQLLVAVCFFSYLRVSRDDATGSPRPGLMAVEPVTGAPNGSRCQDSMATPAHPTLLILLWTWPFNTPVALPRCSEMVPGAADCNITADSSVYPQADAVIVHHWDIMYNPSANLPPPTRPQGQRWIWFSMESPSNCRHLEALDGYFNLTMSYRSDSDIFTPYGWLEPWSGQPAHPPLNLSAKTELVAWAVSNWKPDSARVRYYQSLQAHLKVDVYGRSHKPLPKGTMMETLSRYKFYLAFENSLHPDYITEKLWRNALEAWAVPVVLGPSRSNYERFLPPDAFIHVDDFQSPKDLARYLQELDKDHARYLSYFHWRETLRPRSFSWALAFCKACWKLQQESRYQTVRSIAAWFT
Method: The assay procedure was essentially the same as described previously [Fukowska-Latallo et al, Gene & Development, 4:1288 (1990)] with some modifications. A stock mixture containing 0.25 mM GDP-^14C-Fuc (5000 cpm/mL), 6.25 mM ATP, 25 mM MnCl2 and 62.5 mM sodium cacodylate buffer, pH 6.2 was mixed freshly and kept on ice. […] The incubation was carried out at 37° C. for 30 to 240 minutes depending upon the acceptor under study. Separate assays in the absence of acceptor were used to correct for background hydrolysis of GDP-Fuc. Upon completion of incubation, 400 μL of a 25 percent (v/v) suspension of QAE-Sephadex was added. […] From the supernatant fluid, 200 μL were extracted and mixed with 10 mL of scintillation cocktail. The radioactivity was counted on a scintillation counter. […] This assay can be run in the absence of ATP.

α2,3SiaT = target: T2, α2,3SiaT (Rattus norvegicus, UniProt Q02734); assay: Enzymatic sialylation with α2,3sialyltransferase; type: biochemical
T2 construct: fusion protein between the pre-insulin signal peptide and the catalytic domain of the sialyltransferase; pre-insulin signal peptide (N); made in house; host or cells: Sf-9 insect cells (baculovirus rBv2,3ST), secreted into the medium
T2 sequence (Q02734 48-374 limits assumed): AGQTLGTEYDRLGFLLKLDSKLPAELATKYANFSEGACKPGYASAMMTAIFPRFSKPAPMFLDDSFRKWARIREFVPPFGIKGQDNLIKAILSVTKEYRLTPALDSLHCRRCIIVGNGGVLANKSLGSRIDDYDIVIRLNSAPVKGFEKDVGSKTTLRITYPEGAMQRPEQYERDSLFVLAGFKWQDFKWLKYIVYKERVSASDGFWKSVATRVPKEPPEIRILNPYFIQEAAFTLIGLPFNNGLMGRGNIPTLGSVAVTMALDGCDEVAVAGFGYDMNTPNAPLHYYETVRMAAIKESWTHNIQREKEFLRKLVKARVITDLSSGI
From the text: Sialylation A multienzyme system for sialylation starts with NeuAc, [Gal-1-^13C]-LacNAcβOallyl, PEP, and catalytic amounts of ATP and CMP, as is shown in Scheme 16, below. CMP was converted to CDP by nucleoside monophosphate kinase (EC 2.7.4.4, NMK) in the presence of ATP, which was regenerated from its byproduct ADP catalyzed by PK in the presence of PEP, then to CTP with PEP by PK. The CTP was then reacted with NeuAc with CMP-NeuAc synthetase (EC 2.7.7.43) to produce CMP-NeuAc. The byproduct, PPi was hydrolyzed to Pi by PPase. Sialylation of LacNAcβOallyl was accomplished with CMP-NeuAc and α2,3sialyltransferase (α2,3SiaT; EC 2.4.99.6). The released CMP was again converted to CDP, CTP, and finally to CMP-NeuAc. Using this system, [Gal-1-^13C]NeuAcα2,3Galβ1,4GlcNAcβOallyl (Compound 42) as well as the unlabelled trisaccharide were prepared.
A solution of Compound 1-^13C-41 (210 mg, […]), NeuAc (160 mg, […]), PEP Na3 salt (120 mg, 0.51 mmol), MgCl2.6H2O (20 mg, 0.10 mmol), MnCl2.4H2O (4.9 mg, 0.025 mmol), KCl (7.5 mg, 0.10 mmol), CMP (16 mg, 0.05 mmol), ATP (2.7 mg, […]) and mercaptoethanol (0.34 mL) in HEPES buffer (200 mM, pH 7.5; 3.5 mL) was adjusted with N NaOH to pH 7.5 and the enzymes, NMK (5 U), PK (100 U), PPase (10 U), CMP-NeuAc synthetase (0.4 U) and α2,3SiaT (0.1 U) were added to the solution. […]

SMILES: OC[C@H]1O[C@@H](O[C@H]2[C@H](O)C=CO[C@@H]2CO)[C@H](O)[C@@H](O)[C@H]1O [Galβ1,4Glucal]
- IC50 ([1]; 10 mM Mn2+ and 10 mM LacNAc at pH 6.2 and 37° C.): > 50 mM
- Vrel (relative maximal velocities) ([1]; 10 mM MnCl2 and 10 mM Galβ1,4GlcNAc, Galβ1,4GlcNAc = 100): 10
- substrate for α2,3SiaT (in words) (α2,3SiaT): good substrate
